In data set [1] the test system is Crotalaria juncea. The experiment in a line: Herbicidal tolerance in Crotalaria juncea (sunn hump) performance assessed as injury at 0.07 kg/ha post-emergence treatment measured after 2 weeks. The class given is ADME, organism-based. As to conditions: in vivo, other, 336 h.
The test system of data set [2] is Digitaria sanguinalis. The experiment in a line: Herbicidal activity against Digitaria sanguinalis (hairy crabgrass) in sunn hemp assessed as weed control at 0.07 kg/ha post-emergence treatment measured after 2 weeks. The class given is functional.
The subject of data set [3] is Cyperus esculentus. The experiment in a line: Herbicidal activity against Cyperus esculentus (yellow nutsedge) in sunn hemp assessed as weed control at 0.07 kg/ha post-emergence treatment measured after 2 weeks. The class given is functional.
The subject of data set [4] is Crotalaria juncea. The experiment in a line: Herbicidal tolerance in Crotalaria juncea (sunn hump) performance assessed as stand count at 0.07 kg/ha post-emergence treatment measured after 2 weeks. The class given is ADME, organism-based. As to conditions: in vivo, other, 336 h.
Data set [5] deals with Crotalaria juncea. In words: Herbicidal tolerance in Crotalaria juncea (sunn hump) performance assessed as plant hight at 0.07 kg/ha post-emergence treatment measured after 2 weeks. The class given is ADME, organism-based. As to conditions: in vivo, other, 336 h.
For data set [6], the system named is Eragrostis cilianensis. In words: Herbicidal activity against Eragrostis cilianensis (stinkgrass) in sunn hemp assessed as weed control at 0.07 kg/ha post-emergence treatment measured after 2 weeks. The class given is functional.
Data set [7] has as its system Eragrostis cilianensis. The experiment in a line: Herbicidal activity against Eragrostis cilianensis (stinkgrass ) in sunn hemp assessed as weed control at 1.12 kg/ha post-emergence treatment measured after 2 weeks. The class given is functional.
Data set [8] relates to Crotalaria juncea. The experiment in a line: Herbicidal tolerance in Crotalaria juncea (sunn hump) performance assessed as stand count at 1.12 kg/ha post-emergence treatment measured after 2 weeks. The class given is ADME, organism-based. As to conditions: in vivo, other, 336 h.
Data set [9] deals with Cyperus esculentus. The experiment in a line: Herbicidal activity against Cyperus esculentus (yellow nutsedge) in sunn hemp assessed as weed control at 1.12 kg/ha post-emergence treatment measured after 2 weeks. The class given is functional.
Data set [10] has as its system Crotalaria juncea. The experiment in a line: Herbicidal tolerance in Crotalaria juncea (sunn hump) performance assessed as plant hight at 1.12 kg/ha post-emergence treatment measured after 2 weeks. As to conditions: in vivo, other, 336 h. The class given is ADME, organism-based.
The test system of data set [11] is Digitaria sanguinalis. In words: Herbicidal activity against Digitaria sanguinalis (hairy crabgrass) in sunn hemp assessed as weed control at 1.12 kg/ha post-emergence treatment measured after 2 weeks. The class given is functional.
Data set [12] relates to Crotalaria juncea. The experiment in a line: Herbicidal tolerance in Crotalaria juncea (sunn hump) performance assessed as injury at 1.12 kg/ha post-emergence treatment measured after 2 weeks. The class given is ADME, organism-based. As to conditions: in vivo, other, 336 h.

SMILES strings stand for the structures.

As to `Cc1cnc(C2=NC(=O)C(C)(C(C)C)N2)c(C(=O)O)c1` (configuration not stated) [IMAZAPIC], the Activity in the data set with Crotalaria juncea [1] is 9%; in the data set with Digitaria sanguinalis [2], 76%; in the data set with Cyperus esculentus [3], 91%; in the data set with Crotalaria juncea [4], 8.18 /m2; in the data set with Crotalaria juncea [5], 110 cm; in the data set with Eragrostis cilianensis [6] it was 93%.
Take `CCC(CC)Nc1c([N+](=O)[O-])cc(C)c(C)c1[N+](=O)[O-]` [PENDIMETHALIN]: the Activity in the data set with Eragrostis cilianensis [7] is 94%; in the data set on Crotalaria juncea [8] it was 8.18 /m2; in the data set on Cyperus esculentus [9] it was 63%; in the data set with Crotalaria juncea [10], 108 cm; in the data set on Digitaria sanguinalis [11], 78%; in the data set with Crotalaria juncea [12] it was 7%.

(Values after ChEMBL document CHEMBL3044758, “Weed control in sunn hemp and its ability to suppress weed growth” (Crop Prot, 2011).)
